For series [1] the following is noted: in vivo; cited from earlier work.
Another series deals with HIV-1 strain xxLAI. Briefly: microbe, parasite or virus in culture. In kind it is cell-based. To be noted: Human immunodeficiency virus 1, MT2.
The target in a further series is T1, HIV-1 RT (Human immunodeficiency virus type 1 group M subtype B, UniProt P04585).
T1 construct: Wild-type HIV-1 RT p66/p51 heterodimers; 6-His (N); made in house
The series is described as follows: HIV-1 RT enzymatic (combination) inhibition assay, steady state, activated calf thymus DNA. It counts as biochemical.

In series [2] the target is T2, HIV-1 RT and ddNTP-terminated DNA primer/template (Human immunodeficiency virus type 1 group M subtype B, UniProt P04585).
T2 construct: Wild-type HIV-1 RT p66/p51 heterodimers; 6-His (N); made in house
The series is described as follows: DEC formation assay (gel shift). It counts as binding. The source says:
The dead-end complex (DEC) refers to a salt-stable complex formed by HIV-1 RT/ddNMP-terminated DNA primer-template bound to the next dNTP (or ddNTP) that is resistant to being competed apart with excess template. When DEC forms, HIV-1 RT and the DNA primer-template are "trapped" in a state where the forward reaction (polymerization), backward reaction (terminal ddNMP-excision), or enzyme-DNA dissociation cannot occur. We investigated the DEC formation using TFV-terminated DNA/RT/FTC-TP and FTC-MP-terminated DNA/RT/TFV-DP to test the hypothesis that the incoming NRTI might act as the next nucleotide to the chain-terminated primer and form a DEC, thus stabilizing the pre-existing chain-termination. […] For these studies, formation of DEC was determined by three kinetic constants including the dissociation constant (Kd), the maximum percentage of DNA primer-template forming a tight binding RT-DNA complex (Bmax), and the ratio of Bmax/Kd which reflects the efficiency of DEC formation. Furthermore, two sets of DNA primer/templates ([…] and D26/D50) were used to address whether the observation was sequence-dependent.
DNA primers D19, D25, and D26 were 5'-end labeled with T4 polynucleotide kinase (New England Biolabs, Ipswich, MA) and [γ-^32P]ATP as previously described. […] The annealed primer/templates were analyzed by non-denaturing polyacrylamide gel (4–20% TBE) electrophoresis to ensure that the proper annealing had taken place.
The ability of HIV-1 RT to form a stable complex with NRTI-terminated primer/template in the presence of dNTP, ddNTP or NNRTI was assessed as previously described with modification. Two sets of primer/templates were tested using D19/D36A (D19/D36C) and D25/D50 (D26/D50). Labeled primer/template was chain-terminated by incubating a mixture containing 50 mM Tris-HCl (pH 7.8), 60 mM KCl, 5 mM MgCl2, 5 mM DTT, 300 μg/mL bovine serum albumin, 4.2 (v/v) % glycerol, 5 nM [5'-^32P]-labeled primer/template, 0.5 μM of ddATP or TFV-DP (for D19/D36A or D25/D50) or 0.5 μM of ddCTP or FTC-TP (for D19/D36C or D26/D50), and 200 nM HIV-1 RT for 5 min at 37°C and then placed on ice. […] Free dNTP, ddNTP, or EFV was added into the mixture and the mixture was incubated for 15 min at 25°C. At the end of the incubation, the mixture was placed on ice and mixed with 100 mM KCl and 1 A260 unit/mL (for D19/D36A and D19/D36C) or 5 A260 unit/mL (for D25/D50 and D26/D50) poly(rA).poly(dT)12–18. […] The gel was exposed to a storage phosphor screen and DEC formation was quantified using GE Storm 820 PhosphorImager and ImageQuant TL software (GE Healthcare, Piscataway, NJ).
The DEC formation was analyzed by plotting the fraction of the primer/template detected as a function of dNTP, ddNTP, or EFV concentration. […] Data were fitted by nonlinear regression to simple ligand binding equation: y = (Bmax × [ligand])/(Kd + [ligand]) using SigmaPlot 9.0 (Systat Software, Inc., San Jose, CA), where the ligand is the free dNTP, ddNTP, or EFV concentration, and y corresponds to the % of primer/template in DEC complex. The kinetic constants Kd represents the apparent dissociation constant of a ligand and Bmax is the maximum % of DEC complex formation.

For series [3] the following is noted: human, in vivo; cited from earlier work.
Series [4] concerns the target T2, HIV-1 RT and ddNTP-terminated DNA primer/template. More on the design: method as in PMID 9153415, PMID 17517852. To be noted: TFV-terminated DNA+RT ref 51,55; read-out: Kd, reported values for DEC of TFV-terminated DNA+RT+dCTP; cited from earlier work.
Where [5] appears, read: [α-32P]-dATP incorporation as marker.
The mark [6] stands for this setting: [α-32P]-dCTP incorporation as marker.
Setting [7] is: TFV-terminated DNA 26/50-mer + HIV-1 RT, example experiment of Fig. 5.
Where [8] appears, read: TFV-terminated DNA 26/50-mer + HIV-1 RT, example experiment of Fig. 5, read-out: Kd (curve fit of Fig. 5).
The mark [9] stands for this setting: ligand added to TFV-terminated DNA D20/D36 + HIV-1 RT.
[10] abbreviates: ligand added to TFV-terminated DNA D20/D36 + HIV-1 RT, read-out: Kd.
[11] abbreviates: ligand added to TFV-terminated DNA D26/D50 + HIV-1 RT.
The mark [12] stands for this setting: ligand added to ddAMP-terminated DNA D20/D36 + HIV-1 RT.
Where [13] appears, read: ligand added to ddAMP-terminated DNA D20/D36 + HIV-1 RT, read-out: Kd.
The mark [14] stands for this setting: ligand added to ddAMP-terminated DNA D26/D50 + HIV-1 RT.
Where [15] appears, read: ligand added to ddCMP-terminated DNA D20/D36 + HIV-1 RT.
The mark [16] stands for this setting: ligand added to ddCMP-terminated DNA D27/D50 + HIV-1 RT.

This is an account of results in article PMC2693498 (Retrovirology, 2009).

SMILES strings stand for the structures. “And” between values parts separate entries of the source, which are not always exact repeats. Equal entries are not always repeated. Where two headings read alike, the source gives them in different places.

Procedure for HIV-1 strain xxLAI: The infected cells were incubated for 5 days at 37°C in 5% CO2. Antiviral activity was measured by determining the HIV-1 cytopathic effect by using the vital dye XTT (2,3-bis(2-methoxy-4-nitro-5-sulphophenyl)-2H-tetrazolium-5-carboxanilide) based colorimetric assay [61].
For the median-effect analysis, the compounds were combined at a 1:1 ratio based on their EC50. Six to eight concentrations of each single drug, two-drug combinations, and three-drug combinations were assayed in at least three independent experiments with quadruplicate wells for each experiment. The triple drug combination of TFV+FTC+EFV was studied by the median-effect analysis only. […] For the MacSynergy analysis, combinations of TFV+FTC, TFV+EFV, and FTC+EFV were tested in a checkerboard fashion in 96-well plates with the starting concentration for each compound fixed at three-fold to four-fold above the EC50 value. For the isobologram analysis, combinations of TFV+FTC, TFV+EFV, and FTC+EFV were tested in a checkerboard fashion with the starting concentration for each compound fixed at three-fold to four-fold above the EC50 value.
The degrees of synergy and antagonism were determined using CalcuSyn software (version 2.0, Biosoft, Cambridge, UK) which is based on median-effect principle by Chou and Talalay [62]. […] The IC50 value is calculated from the y-intercept (-m * log IC50), where m is the slope of the curve. […]
The MacSynergy II program (version 1.0, Ann Arbor, MI) calculates a theoretical additive value for each drug combination based on the values generated by the drugs alone using the Bliss Independence model [42]. […] A synergy volume is calculated by adding all of the positive values for each drug combination. […]
In our cell culture study, the score of synergy/antagonism was calculated from a set of 5 replicate parallel measurements and more than 3 sets of such experiments were conducted to test the reproducibility of the results. […]
Fractional inhibitory concentrations are calculated by dividing the EC50 of drug 1 with a fixed overlay of drug 2 by the EC50 of drug 1 alone (the x-coordinate).

On to `O=C1Nc2ccc(Cl)cc2[C@@](C#CC2CC2)(C(F)(F)F)O1` [EFV, efavirenz], for which the “steady-state plasma EFV concentration” value in series [1] was 5 µM. The EC50 in the series on HIV-1 strain xxLAI was determined as 0.0056 µM.

`Nc1nc(=O)n([C@@H]2CS[C@H](CO)O2)cc1F` [FTC, emtricitabine] yielded an EC50 in the series with HIV-1 strain xxLAI of 1.3 µM.

As for `Nc1nc(=O)n([C@@H]2CS[C@H](COP(=O)(O)OP(=O)(O)OP(=O)(O)O)O2)cc1F` [FTC-TP, FTC triphosphate], the IC50 at HIV-1 RT (setting [5]) was 5 ± 3.2 µM; on HIV-1 RT (setting [6]), 2.4 ± 0.8 µM. Besides, the “Bmax (curve fit of Fig. 5)” value in series [2] (setting [7]) is 50.4 ± 1.1%. Moreover, the figures for the Kd in series [2] (setting [8]), in series [2] (setting [10]) and in series [2] (setting [13]) were 52.6 ± 3.4 µM, 250 ± 11 µM and 171 ± 28 µM, respectively. Also, the “fold more efficient DEC formation than dCTP” value in series [2] (TFV-terminated DNA+RT, two sequence contexts: equal to dCTP in one, this fold in the other) is 3.9 fold and 4 fold. In series [2] (ddAMP-terminated DNA+RT), the “fold less efficient DEC formation than with dCTP” value turned out to be 10 fold. Further, the Bmax came to 17.7 ± 3.9% in series [2] (setting [9]), 50.0 ± 5.0% in series [2] (setting [11]), 28.1 ± 4.7% in series [2] (setting [12]) and 60.2 ± 7.2% in series [2] (setting [14]). Besides, the “concentration in patients' peripheral blood mononuclear cells (PBMC)” value in series [3] was 5000 nM.

Regarding `C[C@H](Cn1cnc2c(N)ncnc21)OCP(=O)(O)O` [TFV, tenofovir], the EC50 with HIV-1 strain xxLAI was found to be 13 µM.

As for `C[C@@H](Cn1cnc2c(N)ncnc21)OCP(=O)(O)OP(=O)(O)OP(=O)(O)O` [TFV-DP, TFV diphosphate], the figures for the IC50 at HIV-1 RT (setting [5]) and on HIV-1 RT (setting [6]) were 0.53 ± 0.08 µM and 0.82 ± 0.23 µM, respectively. For the same compound, the Bmax in series [2] (setting [15]) stood at 15.3 ± 2.7%; in series [2] (setting [16]), 55 ± 2%. Also, the “concentration in patients' peripheral blood mononuclear cells (PBMC)” value in series [3] was 500 nM.

`Nc1ncnc2c1ncn2[C@H]1C[C@H](O)[C@@H](COP(=O)(O)OP(=O)(O)OP(=O)(O)O)O1` [dATP]: the “fold more efficient DEC formation than TFV-DP” value in series [2] (ddCMP-terminated DNAs) is 24- to 65 fold. The Bmax in series [2] (ligand added to FTC-MP-terminated DNA D27/D50 + HIV-1 RT, ND = No DEC formation detected at 2 mM) is recorded as 45 ± 14%; in series [2] (setting [15]), 38.0 ± 4.4%; in series [2] (setting [16]), 60 ± 3%. The Kd in series [2] (ligand added to FTC-MP-terminated DNA D27/D50 + HIV-1 RT, ND = No DEC formation detected at 2 mM, read-out: Kd) came to 862 ± 229 µM.

`Nc1ccn([C@H]2C[C@H](O)[C@@H](COP(=O)(O)OP(=O)(O)OP(=O)(O)O)O2)c(=O)n1` [dCTP]: the Kd in series [4] is 1 to 5 µM; in series [2] (setting [8]), 185 ± 28 µM; in series [2] (setting [10]), 232 ± 12 µM; in series [2] (setting [13]), 21.5 ± 9.8 µM. The “Bmax (curve fit of Fig. 5)” value in series [2] (setting [7]) amounted to 49.2 ± 2.7%. Moreover, the Bmax in series [2] (setting [9]) is listed as 18.5 ± 6.7%; in series [2] (setting [11]) it was 50.0 ± 5.5%; in series [2] (setting [12]) it was 34.2 ± 4.6%; in series [2] (setting [14]) it was 55.8 ± 3.4%.
